{
  "source": "patent US10238713B2",
  "about": "“Cyclic tetrapeptides and therapeutic applications thereof” (LODZ UNIVERSITY OF TECHNOLOGY, priority 2010, dated 2019)",
  "system": "mice, carrageenan air pouch",
  "test": "Carrageenan air-pouch test (exudate cell number)",
  "assay_type": "in vivo, mouse",
  "settings": "peptides 100 μg i.p. one hour before carrageenan, 24 h; FIGS. 18A-18B",
  "procedure,_shortened": "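Mice received peptide i.p. (100 μg, from DMSO/0.9% NaCl) one hour before intra-pouch 1% carrageenan in a 3-day dorsal air pouch; dexamethasone i.p. served as reference. Exudate was aspirated 24 h later after adding 1 ml saline, and cells were counted by hemocytometer (×10^6 per mouse, mean ±SE, 10 mice/group).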",
  "note": "Non-standard residues stand in square brackets, D forms with d. Residues, ends and D or L forms follow the SMILES beside them. β3hF = N[C@H](CC(=O)O)Cc1ccccc1",
  "data": [
    {"smiles": "O=C1C[C@H](Cc2ccccc2)NC(=O)[C@@H]2CCCN2C(=O)[C@@H]2CCCN2C(=O)[C@H](Cc2ccccc2)N1", "note": "[I-A] (cyclo(FPP[β3hF]))", "values": [
      {"measurement": "air pouch exudate cell number, P vs Control", "result": 0.0005}
    ]}
  ]
}
